In patent US11078198B2 (BRISTOL-MYERS SQUIBB COMPANY, priority 2017, dated 2021):

target: T1, human FXR (Homo sapiens, UniProt Q96RI1); assay: transient human FXR/Gal4-luciferase reporter assay; assay type: cell-based; conditions: Gal4-hFXR transfected HEK293 reporter cells; relative to 8 μM GW-4064
T1 construct: expressed in transfected cells; host or cells: HEK293 cells stably carrying a 5xGal4-response-element firefly luciferase reporter, transiently transfected with pcDNA3.1-Gal4-FXR
T1 sequence (Q96RI1 262-486 limits assumed): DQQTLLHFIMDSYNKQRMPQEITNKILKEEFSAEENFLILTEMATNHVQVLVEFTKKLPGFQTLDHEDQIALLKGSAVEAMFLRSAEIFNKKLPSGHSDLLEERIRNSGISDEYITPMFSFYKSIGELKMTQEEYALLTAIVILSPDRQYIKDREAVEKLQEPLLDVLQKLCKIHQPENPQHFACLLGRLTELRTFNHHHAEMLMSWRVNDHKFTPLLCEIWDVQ
In short: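 Transient Gal4-hFXR LBD fusion (pcDNA3.1, Lipofectamine, overnight) expressed in a HEK293 reporter line stably bearing five Gal4 elements upstream of firefly luciferase, grown in charcoal/dextran-stripped FBS. Compound dilutions in DMSO incubated with cells overnight at 37° C, 5% CO2, before luciferase readout.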

| EC50 | SMILES |
| --- | --- |
| 431 nM | CC(C)NC(=O)c1cc(F)c2nc(N3CCC4(C=C(c5c(-c6c(Cl)cncc6Cl)noc5C5CC5)C4)CC3)sc2c1 [Example 199, 2-(2-(5-Cyclopropyl-3-(3,5-dichloropyridin-4-yl)isoxazol-4-yl)-7-azaspiro[3.5]non-1-en-7-yl)-4-fluoro-N-isopropylbenzo[d]thiazole-6-carboxamide] |
| 68 nM | CCNC(=O)c1cc(F)c2nc(N3CCC4(C=C(c5c(-c6c(Cl)cncc6Cl)noc5C5CC5)C4)CC3)sc2c1 [Example 200, 2-(2-(5-Cyclopropyl-3-(3,5-dichloropyridin-4-yl)isoxazol-4-yl)-7-azaspiro[3.5]non-1-en-7-yl)-N-ethyl-4-fluorobenzo[d]thiazole-6-carboxamide] |
| 150 nM | O=C(NC1CC1)c1cc(F)c2nc(N3CCC4(C=C(c5c(-c6c(Cl)cncc6Cl)noc5C5CC5)C4)CC3)sc2c1 [Example 201, N-Cyclopropyl-2-(2-(5-cyclopropyl-3-(3,5-dichloropyridin-4-yl)isoxazol-4-yl)-7-azaspiro[3.5]non-1-en-7-yl)-4-fluorobenzo[d]thiazole-6-carboxamide] |
| 155 nM | NC(=O)c1cc(F)c2nc(N3CCC4(C=C(c5c(-c6c(Cl)cncc6Cl)noc5C5CC5)C4)CC3)sc2c1 [Example 202, 2-(2-(5-Cyclopropyl-3-(3,5-dichloropyridin-4-yl)isoxazol-4-yl)-7-azaspiro[3.5]non-1-en-7-yl)-4-fluorobenzo[d]thiazole-6-carboxamide] |
| 946 nM | CCOC(=O)c1cc(C(F)(F)F)c2cc(N3CCC4(C=C(c5c(-c6c(Cl)cncc6Cl)noc5C5CC5)C4)CC3)ccc2n1 [Example 203, Ethyl 6-(2-(5-cyclopropyl-3-(3,5-dichloropyridin-4-yl)isoxazol-4-yl)-7-azaspiro[3.5]non-1-en-7-yl)-4-(trifluoromethyl)quinoline-2-carboxylate] |
| 26 nM | O=C(O)c1cc(F)c2nc(N3CCC4(C=C(c5c(C6CC6)nnn5-c5c(Cl)cccc5Cl)C4)CC3)sc2c1 [Example 204, 2-(2-(4-Cyclopropyl-1-(2,6-dichlorophenyl)-1H-1,2,3-triazol-5-yl)-7-azaspiro[3.5]non-1-en-7-yl)-4-fluorobenzo[d]thiazole-6-carboxylic acid] |
| 1280 nM | O=C(O)c1cc(F)c2nc(OC3CCC4(C=C(c5c(-c6c(Cl)cccc6Cl)noc5C5CC5)C4)CC3)sc2c1 (stereo not shown) [Example 209, 2-((2-(5-Cyclopropyl-3-(2,6-dichlorophenyl)isoxazol-4-yl)spiro[3.5]non-1-en-7-yl)oxy)-4-fluorobenzo[d]thiazole-6-carboxylic acid] |
| 88 nM | O=C(O)c1cc(F)c2nc(N3CCC4(C=C(c5c(C(F)F)cnn5-c5c(Cl)cncc5Cl)C4)CC3)sc2c1 [Example 216, 2-(2-(1-(3,5-Dichloropyridin-4-yl)-4-(difluoromethyl)-1H-pyrazol-5-yl)-7-azaspiro[3.5]non-1-en-7-yl)-4-fluorobenzo[d]thiazole-6-carboxylic acid] |

More lines, now with the values behind:

| SMILES | EC50 |
| --- | --- |
| O=C(O)c1cc(F)c2nc(OC3CCC4(CC3)CC(O)(c3c(-c5c(Cl)cccc5Cl)noc3C3CC3)C4)sc2c1 (stereo not shown) [Example 205, 2-((2-(5-Cyclopropyl-3-(2,6-dichlorophenyl)isoxazol-4-yl)-2-hydroxyspiro[3,5]nonan-7-yl)oxy)-4-fluorobenzo[d]thiazole-6-carboxylic acid] | 2620 nM |
| O=C(O)c1cccc(COC2CCC3(CC2)CC(O)(c2c(-c4c(Cl)cccc4Cl)noc2C2CC2)C3)c1 (stereo not shown) [Example 206, 3-(((2-(5-Cyclopropyl-3-(2,6-dichlorophenyl)isoxazol-4-yl)-2-hydroxyspiro[3.5]nonan-7-yl)oxy)methyl)benzoic acid] | 4710 nM |
| O=C(O)c1cccc(OC2CCC3(CC2)CC(O)(c2c(-c4c(Cl)cccc4Cl)noc2C2CC2)C3)c1 (stereo not shown) [Example 207, 3-((2-(5-Cyclopropyl-3-(2,6-dichlorophenyl)isoxazol-4-yl)-2-hydroxyspiro[3.5]nonan-7-yl)oxy)benzoic acid] | 4470 nM |
| O=C(O)c1ccc(OC2CCC3(CC2)CC(O)(c2c(-c4c(Cl)cccc4Cl)noc2C2CC2)C3)cc1 (stereo not shown) [Example 208, 4-((2-(5-Cyclopropyl-3-(2,6-dichlorophenyl)isoxazol-4-yl)-2-hydroxyspiro[3.5]nonan-7-yl)oxy)benzoic acid] | 6660 nM |
| O=C(O)c1ccc2cc(OC3CCC4(C=C(c5c(-c6c(Cl)cccc6Cl)noc5C5CC5)C4)CC3)ccc2n1 (stereo not shown) [Example 210, 6-((2-(5-Cyclopropyl-3-(2,6-dichlorophenyl)isoxazol-4-yl)spiro[3.5]non-1-en-7-yl)oxy)quinoline-2-carboxylic acid] | 485 nM |
| O=C(O)c1cc(C(F)(F)F)c2cc(N3CCC4(C=C(c5c(C(C6CC6)C6CC6)noc5C5CC5)C4)CC3)ccc2n1 [Example 212, 6-(2-(5-Cyclopropyl-3-(dicyclopropylmethyl)isoxazol-4-yl)-7-azaspiro[3.5]non-1-en-7-yl)-4-(trifluoromethyl)quinoline-2-carboxylic acid] | 1550 nM |
| O=C(O)c1cc(F)c2nc(N3CCC4(C=C(c5c(C(F)F)cnn5-c5ccccc5C(F)(F)F)C4)CC3)sc2c1 [Example 213, 2-(2-(4-(Difluoromethyl)-1-(2-(trifluoromethyl)phenyl)-1H-pyrazol-5-yl)-7-azaspiro[3.5]non-1-en-7-yl)-4-fluorobenzo[d]thiazole-6-carboxylic acid] | 48 nM |
| O=C(O)c1cc(C(F)(F)F)c2cc(N3CCC4(C=C(c5c(C(F)F)cnn5-c5ccccc5C(F)(F)F)C4)CC3)ccc2n1 [Example 214, 6-(2-(4-(Difluoromethyl)-1-(2-(trifluoromethyl)phenyl)-1H-pyrazol-5-yl)-7-azaspiro[3.5]non-1-en-7-yl)-4-(trifluoromethyl)quinoline-2-carboxylic acid] | 26 nM |
| O=C(O)c1cc(F)c2nc(N3CCC4(CC3)CC(c3c(C(F)F)cnn3-c3ccccc3C(F)(F)F)C4)sc2c1 [Example 215, 2-(2-(4-(Difluoromethyl)-1-(2-(trifluoromethyl)phenyl)-1H-pyrazol-5-yl)-7-azaspiro[3.5]nonan-7-yl)-4-fluorobenzo[d]thiazole-6-carboxylic acid] | 995 nM |
| O=C(O)c1cc(F)c2nc(N3CCC4(C=C(c5c(C(F)F)cnn5-c5ccccc5OC(F)(F)F)C4)CC3)sc2c1 [Example 217, 2-(2-(4-(Difluoromethyl)-1-(2-(trifluoromethoxy)phenyl)-1H-pyrazol-5-yl)-7-azaspiro[3.5]non-1-en-7-yl)-4-fluorobenzo[d]thiazole-6-carboxylic acid] | 230 nM |
| O=C(O)c1ccc(N2CCC3(C=C(c4c(C(F)F)cnn4-c4ccccc4OC(F)(F)F)C3)CC2)nc1 [Example 218, 6-(2-(4-(Difluoromethyl)-1-(2-(trifluoromethoxy)phenyl)-1H-pyrazol-5-yl)-7-azaspiro[3.5]non-1-en-7-yl)nicotinic acid] | 1080 nM |
| Cn1cc(C(=O)O)c2ccc(N3CCC4(C=C(c5c(C(F)F)cnn5-c5ccccc5C(F)(F)F)C4)CC3)cc21 [Example 219, 6-(2-(4-(Difluoromethyl)-1-(2-(trifluoromethyl)phenyl)-1H-pyrazol-5-yl)-7-azaspiro[3.5]non-1-en-7-yl)-1-methyl-1H-indole-3-carboxylic acid] | 180 nM |
| Cc1cc(C(=O)O)cc2sc(N3CCC4(CC3)CC(c3c(C(F)F)cnn3-c3ccccc3C(F)(F)F)C4)nc12 [Example 220, 2-(2-(4-(Difluoromethyl)-1-(2-(trifluoromethyl)phenyl)-1H-pyrazol-5-yl)-7-azaspiro[3.5]nonan-7-yl)-4-methylbenzo[d]thiazole-6-carboxylic acid] | 378 nM |
| Cc1cc(C(=O)O)cc2sc(N3CCC4(C=C(c5c(C(F)F)cnn5-c5ccccc5OC(F)(F)F)C4)CC3)nc12 [Example 221, 2-(2-(4-(Difluoromethyl)-1-(2-(trifluoromethoxy)phenyl)-1H-pyrazol-5-yl)-7-azaspiro[3.5]non-1-en-7-yl)-4-methylbenzo[d]thiazole-6-carboxylic acid] | 182 nM |
| Cn1cc(C(=O)O)c2ccc(N3CCC4(CC3)CC(c3c(C(F)F)cnn3-c3ccccc3C(F)(F)F)C4)cc21 [Example 222, 6-(2-(4-(Difluoromethyl)-1-(2-(trifluoromethyl)phenyl)-1H-pyrazol-5-yl)-7-azaspiro[3. 5]nonan-7-yl)-1-methyl-1H-indole-3-carboxylic acid] | 275 nM |
| O=C(O)c1ccc(N2CCC3(C=C(c4c(C(F)F)cnn4-c4ccccc4C(F)(F)F)C3)CC2)nc1 [Example 223] | 205 nM |
| O=C(O[C@@H]1O[C@H](C(=O)O)[C@@H](O)[C@H](O)[C@H]1O)c1cc(C(F)(F)F)c2cc(N3CCC4(C=C(c5c(-c6c(Cl)cncc6Cl)noc5C5CC5)C4)CC3)ccc2n1 [Example 224, (2S,3S,4S,5R,6S)-6-((6-(2-(5-Cyclopropyl-3-(3,5-dichloropyridin-4-yl)isoxazol-4-yl)-7-azaspiro[3.5]non-1-en-7-yl)-4-(trifluoromethyl)quinoline-2-carbonyl)oxy)-3,4,5-trihydroxytetrahydro-2H-pyran-2-carboxylic acid] | 73 nM |
